Experimental data reported in paper PMC8508710, “Biochemical Characterization of 13-Lipoxygenases of Arabidopsis thaliana” (International Journal of Molecular Sciences, 2021).

How the values were obtained:
LOX2 = molecular target: T1, LOX2 (Arabidopsis thaliana, UniProt P38418); assay: LOX2 activity, oxygen electrode (polarography); assay type: biochemical; set-up: made in house; host or cells: E. coli Nico21(DE3), pET15b; settings: for activity at 280 µM: enzyme incubated with 280 µM chemical (1/10 vol of 2.8 mM), injected into 30 µM LeA, 50 mM Tris-HCl pH 7.2, vs solvent control, read-out: Polarography Relative Activity (%) LOX2; for Increase of LOX2 activity in comparison to control: 1 mM cation, LeA 30 µM, pH 8.0; for Relative Activity (%) LOX2: 1 mM metal salt, LeA 30 µM in 20 mM HEPES pH 8.0, oxygen consumption vs control without metal
T1 sequence (P38418 71-896): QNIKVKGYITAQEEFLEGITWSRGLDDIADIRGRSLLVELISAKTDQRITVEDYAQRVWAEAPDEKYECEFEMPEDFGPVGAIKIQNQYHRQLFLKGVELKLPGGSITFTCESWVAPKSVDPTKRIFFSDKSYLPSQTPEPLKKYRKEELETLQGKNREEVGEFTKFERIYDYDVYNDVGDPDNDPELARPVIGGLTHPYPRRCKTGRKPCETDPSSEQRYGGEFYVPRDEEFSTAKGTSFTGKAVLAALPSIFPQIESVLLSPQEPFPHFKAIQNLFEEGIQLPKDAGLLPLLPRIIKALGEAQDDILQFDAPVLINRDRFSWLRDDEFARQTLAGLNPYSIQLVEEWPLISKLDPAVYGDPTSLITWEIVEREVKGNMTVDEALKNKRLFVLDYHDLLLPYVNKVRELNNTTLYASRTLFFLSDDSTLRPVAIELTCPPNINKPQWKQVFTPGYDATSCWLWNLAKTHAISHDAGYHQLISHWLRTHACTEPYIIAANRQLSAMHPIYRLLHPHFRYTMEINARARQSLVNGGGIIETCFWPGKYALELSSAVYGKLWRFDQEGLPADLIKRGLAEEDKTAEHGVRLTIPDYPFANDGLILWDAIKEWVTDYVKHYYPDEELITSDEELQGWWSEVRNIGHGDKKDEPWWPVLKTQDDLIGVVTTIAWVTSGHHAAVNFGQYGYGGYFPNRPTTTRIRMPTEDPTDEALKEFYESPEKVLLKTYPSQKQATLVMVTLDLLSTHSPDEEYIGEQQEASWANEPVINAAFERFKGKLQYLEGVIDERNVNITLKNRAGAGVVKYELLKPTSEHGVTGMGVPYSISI

LOX6 [1] = molecular target: T2, LOX6 (Arabidopsis thaliana, UniProt Q9CAG3); assay: LOX6 activity, oxygen electrode (polarography); assay type: biochemical; set-up: made in house; host or cells: E. coli Nico21(DE3), pEXP5-NT/TOPO; settings: for activity at 280 µM: enzyme incubated with 280 µM chemical (1/10 vol of 2.8 mM), injected into 30 µM LeA, 50 mM Tris-HCl pH 7.2, vs solvent control, read-out: Polarography Relative Activity (%) LOX6; for Increase of LOX6-catalyzed oxygen consumption: 1 mM cation, LeA 30 µM, pH 8.0; for Relative Activity (%) LOX6: 1 mM metal salt, LeA 30 µM in 20 mM HEPES pH 8.0, oxygen consumption vs control without metal
T2 sequence (Q9CAG3 41-917): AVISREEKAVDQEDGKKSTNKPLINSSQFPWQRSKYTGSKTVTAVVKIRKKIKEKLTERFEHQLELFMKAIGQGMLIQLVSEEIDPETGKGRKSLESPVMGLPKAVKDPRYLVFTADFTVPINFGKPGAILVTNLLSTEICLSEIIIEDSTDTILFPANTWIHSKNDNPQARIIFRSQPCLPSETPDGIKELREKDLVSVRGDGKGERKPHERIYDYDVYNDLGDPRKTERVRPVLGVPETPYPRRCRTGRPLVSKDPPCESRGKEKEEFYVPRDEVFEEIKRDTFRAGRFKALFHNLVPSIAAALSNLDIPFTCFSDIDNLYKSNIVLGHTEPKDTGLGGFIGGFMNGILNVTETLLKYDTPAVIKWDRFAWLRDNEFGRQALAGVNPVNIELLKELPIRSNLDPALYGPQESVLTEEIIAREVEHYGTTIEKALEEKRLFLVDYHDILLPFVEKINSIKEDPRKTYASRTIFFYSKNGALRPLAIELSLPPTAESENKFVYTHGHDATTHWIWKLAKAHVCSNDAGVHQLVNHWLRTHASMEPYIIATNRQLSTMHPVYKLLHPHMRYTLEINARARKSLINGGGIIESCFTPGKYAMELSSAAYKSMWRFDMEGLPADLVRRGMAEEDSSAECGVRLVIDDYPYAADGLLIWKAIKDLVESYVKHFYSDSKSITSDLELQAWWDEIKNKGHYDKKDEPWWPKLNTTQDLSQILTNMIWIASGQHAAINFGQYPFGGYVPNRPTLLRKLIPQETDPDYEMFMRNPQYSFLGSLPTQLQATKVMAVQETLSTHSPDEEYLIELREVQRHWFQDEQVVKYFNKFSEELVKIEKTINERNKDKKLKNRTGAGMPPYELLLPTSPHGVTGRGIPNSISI

LOX3 = molecular target: T3, LOX3 (Arabidopsis thaliana, UniProt Q9LNR3); assay: LOX3 activity, spectrophotometric (conjugated diene formation at 234 nm); settings: for Mode of inhibition: Michaelis–Menten, Lineweaver–Burk and Dixon plots; for Photometry Relative activity (%) LOX3: enzyme 0.225 µg/µL incubated 10 min 30 °C with 280 µM chemical, 4.8 µM LeA, 50 mM Tris-HCl pH 7.2, vs solvent control; for Relative Activity (%) LOX3: E. coli lysate in 50 mM TRIS pH 8.0 diluted 1:10, 50 mM HEPES pH 8.0 + 1 mM metal salt, LeA, 234 nm
T3 sequence (Q9LNR3 71-919): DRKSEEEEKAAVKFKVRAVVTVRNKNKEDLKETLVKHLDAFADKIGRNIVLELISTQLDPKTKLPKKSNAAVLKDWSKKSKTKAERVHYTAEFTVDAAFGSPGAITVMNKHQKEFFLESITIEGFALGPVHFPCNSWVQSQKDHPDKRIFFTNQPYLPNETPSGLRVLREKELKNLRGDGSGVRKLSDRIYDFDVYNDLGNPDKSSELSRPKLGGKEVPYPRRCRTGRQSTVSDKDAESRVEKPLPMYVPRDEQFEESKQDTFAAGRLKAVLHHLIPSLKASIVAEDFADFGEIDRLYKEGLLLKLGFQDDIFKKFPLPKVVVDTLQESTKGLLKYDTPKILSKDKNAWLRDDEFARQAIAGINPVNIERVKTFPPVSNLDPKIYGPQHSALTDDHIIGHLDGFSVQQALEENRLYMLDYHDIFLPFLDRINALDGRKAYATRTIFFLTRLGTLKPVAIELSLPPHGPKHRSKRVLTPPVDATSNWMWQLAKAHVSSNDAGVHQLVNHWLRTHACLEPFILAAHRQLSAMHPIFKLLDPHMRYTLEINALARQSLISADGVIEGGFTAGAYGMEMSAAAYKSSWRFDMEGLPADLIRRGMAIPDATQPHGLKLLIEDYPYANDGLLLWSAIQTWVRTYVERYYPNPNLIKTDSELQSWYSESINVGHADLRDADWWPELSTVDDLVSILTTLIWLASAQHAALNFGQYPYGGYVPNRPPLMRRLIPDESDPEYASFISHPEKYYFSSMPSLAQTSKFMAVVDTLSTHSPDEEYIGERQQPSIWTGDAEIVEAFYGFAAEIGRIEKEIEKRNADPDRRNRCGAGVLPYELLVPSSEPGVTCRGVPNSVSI

LOX6 [2] = molecular target: T2, LOX6; assay: LOX6 activity, spectrophotometric (conjugated diene formation at 234 nm); settings: for Photometry Relative activity (%) LOX6: enzyme 0.225 µg/µL incubated 10 min 30 °C with 280 µM chemical, 4.8 µM LeA, 50 mM Tris-HCl pH 7.2, vs solvent control; for Relative Activity (%) LOX6: E. coli lysate in 50 mM TRIS pH 8.0 diluted 1:10, 50 mM HEPES pH 8.0 + 1 mM metal salt, LeA, 234 nm

SMILES	activity at 280 µM (LOX2) [%]	activity at 280 µM (LOX6 [1]) [%]	Photometry Relative activity (%) LOX6 (LOX6 [2]) [%]	Relative Activity (%) LOX2 (LOX2) [%]	Relative Activity (%) LOX6 (LOX6 [1])	Relative Activity (%) LOX3 (LOX3) [%]	Relative Activity (%) LOX6 (LOX6 [2]) [%]	further results
CCC=CCC1C(=O)C=CC1CCCCCCCC(=O)O (stereo not drawn) [12-OPDA, cis-(+)-12-oxophytodienoic acid]	64 ± 4	50 ± 10	59 ± 10	–	–	–	–	IC50 (LOX3): 130 ± 31 µM; Ki (LOX3): 13 µM; Mode of inhibition (LOX3): non-competitive or mixed; Photometry Relative activity (%) LOX3 (LOX3): 35 ± 5%; IC50 (LOX6 [2]): 280 to 338 µM; Mode of inhibition (LOX6 [2]; 226 µM): non-competitive
[Cl-].[Cl-].[Mg+2] [MgCl2]	–	–	–	170 ± 18	142 ± 15%	108±4	123±10	Increase of LOX2 activity in comparison to control (LOX2): 70%; Increase of LOX6-catalyzed oxygen consumption (LOX6 [1]): 42%
[Ca+2].[Cl-].[Cl-] [CaCl2]	–	–	–	690 ± 60	121 ± 15%	104±2	107±11	Increase of LOX2 activity in comparison to control (LOX2): 590%; Increase of LOX6-catalyzed oxygen consumption (LOX6 [1]): 21%
CC/C=C\CC1C(=O)CCC1CC(=O)OC (stereo not drawn) [MJ, methyl jasmonate]	87 ± 10	94 ± 6	86 ± 6	–	–	–	–	Ki (LOX3): 295 µM; Mode of inhibition (LOX3): non-competitive
O=S(=O)([O-])[O-].[Cd+2] [CdSO4]	–	–	–	220 ± 18	no activity	63±3	40±10	–
O=C(O)/C=C/CCCCCCCCC(=O)O [TA, traumatic acid]	95 ± 8	101 ± 12	100 ± 9	–	–	–	–	Photometry Relative activity (%) LOX3 (LOX3): 103 ± 4%
O=C(O)c1ccccc1O [SA, salicylic acid]	96 ± 7	103 ± 5	–	–	–	–	–	–
